# Measurements: patent US20250288589A1, “PYRIDOPYRIMIDINES AND METHODS OF THEIR USE” (Kineta, Inc., priority 2021, published 2025)
# Biological target: T1, full-length human PIKFYVE (Homo sapiens, UniProt Q9Y2I7, L932S/Q1183K/Q995L/S1033A/S696N/T998S)
# T1 construct: A full-length human PIKFYVE [1-2098(end) amino acids and S696N, L932S, Q995L, T998S, S1033A and Q1183K; purchased Carna Biosciences; host or cells: baculovirus expression system
# Test: PIKfyve biochemical assay (ADP-Glo Kinase assay, Carna Biosciences)
# Conditions: GST-PIKFYVE, 10 μM to 3 nM in duplicate, read-out: hPIKfyve IC50
# Excerpt: (§1) PIKfyve Biochemical Assay. The biochemical PIKFyve inhibition assays were run by Carna Biosciences according to proprietary methodology based on the Promega ADP-Glo™ Kinase assay. A full-length human PIKFYVE [1-2098(end) amino acids and S696N, L932S, Q995L, T998S, S1033A and Q1183K of the protein having the sequence set forth in NCBI Reference Sequence No. NP_055855.2] was expressed as N-terminal GST-fusion protein (265 kDa) using baculovirus expression system. GST-PIKFYVE was purified by using glutathione sepharose chromatography and used in an ADP-Glo™ Kinase assay (Promega). Reactions were set up by adding the test compound solution, substrate solution, ATP solution and kinase solution, each at 4× final concentrations. Reactions were prepared with assay buffer (50 mM MOPS, 1 mM DTT, pH7.2), mixed, and incubated in black 384 well polystyrene plates for 1 hour at room temperature. ADP-Glo™ reagent was then added for 40 minutes, followed by kinase detection reagent for an additional 40 minutes. The kinase activity was evaluated by detecting relative light units on a luminescence plate reader. Samples were run in duplicate from 10 μM to 3 nM. […] IC50 values were calculated from concentration vs % inhibition curves by fitting to a four-parameter logistic curve.
# as §1, with “The” for “PIKfyve Biochemical Assay. The”, “accession number” for “the protein having the sequence set forth in NCBI Reference Sequence No.”, “uM” for “μM”
# T1 sequence (Q9Y2I7 whole entry S696N/L932S/Q995L/T998S/S1033A/Q1183K): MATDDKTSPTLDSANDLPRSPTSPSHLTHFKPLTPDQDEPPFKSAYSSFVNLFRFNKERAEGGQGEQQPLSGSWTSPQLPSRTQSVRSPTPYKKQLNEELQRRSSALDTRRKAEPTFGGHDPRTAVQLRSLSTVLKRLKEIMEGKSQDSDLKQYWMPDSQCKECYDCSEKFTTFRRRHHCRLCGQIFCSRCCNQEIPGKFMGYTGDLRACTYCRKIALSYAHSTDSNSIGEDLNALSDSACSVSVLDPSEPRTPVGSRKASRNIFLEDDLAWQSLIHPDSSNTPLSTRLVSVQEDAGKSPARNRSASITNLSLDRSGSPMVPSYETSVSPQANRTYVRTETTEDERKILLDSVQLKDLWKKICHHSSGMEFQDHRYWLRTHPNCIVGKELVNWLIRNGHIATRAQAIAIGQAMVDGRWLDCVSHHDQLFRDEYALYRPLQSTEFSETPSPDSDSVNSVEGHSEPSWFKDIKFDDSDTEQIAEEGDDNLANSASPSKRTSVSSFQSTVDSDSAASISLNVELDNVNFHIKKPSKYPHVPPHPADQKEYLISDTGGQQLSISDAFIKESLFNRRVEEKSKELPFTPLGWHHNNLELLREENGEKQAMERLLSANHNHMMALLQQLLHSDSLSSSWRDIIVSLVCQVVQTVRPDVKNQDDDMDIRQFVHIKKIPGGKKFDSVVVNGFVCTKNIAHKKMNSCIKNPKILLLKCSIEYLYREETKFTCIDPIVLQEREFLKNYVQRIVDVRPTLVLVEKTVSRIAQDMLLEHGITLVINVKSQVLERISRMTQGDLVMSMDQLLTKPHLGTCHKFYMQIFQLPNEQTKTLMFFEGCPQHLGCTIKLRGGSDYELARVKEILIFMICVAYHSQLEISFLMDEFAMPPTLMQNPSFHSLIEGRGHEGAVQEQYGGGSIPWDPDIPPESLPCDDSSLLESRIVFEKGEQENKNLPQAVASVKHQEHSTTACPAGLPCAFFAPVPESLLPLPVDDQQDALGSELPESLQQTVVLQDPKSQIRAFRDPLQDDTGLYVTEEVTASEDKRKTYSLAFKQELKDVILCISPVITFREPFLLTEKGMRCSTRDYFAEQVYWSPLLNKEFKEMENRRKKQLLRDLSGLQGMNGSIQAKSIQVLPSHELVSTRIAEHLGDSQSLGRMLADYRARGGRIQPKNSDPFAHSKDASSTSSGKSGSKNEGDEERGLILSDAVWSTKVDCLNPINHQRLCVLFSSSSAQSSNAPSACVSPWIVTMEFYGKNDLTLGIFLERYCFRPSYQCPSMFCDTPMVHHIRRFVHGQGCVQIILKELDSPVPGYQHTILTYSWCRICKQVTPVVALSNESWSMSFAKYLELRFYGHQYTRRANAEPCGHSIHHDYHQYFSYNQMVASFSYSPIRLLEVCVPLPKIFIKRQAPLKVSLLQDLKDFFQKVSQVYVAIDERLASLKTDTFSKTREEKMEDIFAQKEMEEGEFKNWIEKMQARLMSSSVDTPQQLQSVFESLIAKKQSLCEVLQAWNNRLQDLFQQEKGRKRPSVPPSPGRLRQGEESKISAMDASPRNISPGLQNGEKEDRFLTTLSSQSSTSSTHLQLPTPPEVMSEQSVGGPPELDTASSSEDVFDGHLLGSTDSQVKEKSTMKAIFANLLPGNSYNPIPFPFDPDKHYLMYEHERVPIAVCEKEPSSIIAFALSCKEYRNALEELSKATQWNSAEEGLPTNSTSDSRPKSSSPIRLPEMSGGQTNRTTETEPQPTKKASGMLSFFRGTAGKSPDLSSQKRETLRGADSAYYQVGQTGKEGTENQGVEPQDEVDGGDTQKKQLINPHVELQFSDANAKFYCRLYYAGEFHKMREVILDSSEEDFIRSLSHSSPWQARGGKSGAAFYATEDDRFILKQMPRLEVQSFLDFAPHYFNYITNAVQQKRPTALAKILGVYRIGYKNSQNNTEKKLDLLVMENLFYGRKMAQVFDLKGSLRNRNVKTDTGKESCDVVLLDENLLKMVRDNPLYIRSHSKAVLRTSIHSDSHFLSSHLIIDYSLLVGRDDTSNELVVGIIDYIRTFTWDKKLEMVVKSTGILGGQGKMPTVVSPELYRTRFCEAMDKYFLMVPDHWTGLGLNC
row,IC50,Structure (SMILES)
1,100 to 1000 nM,"c1ccc(-c2ccn(-c3nc(N4CCOCC4)c4ncccc4n3)n2)nc1 [Compound 12, 4-(2-(3-(pyridin-2-yl)-1H-pyrazol-1-yl)pyrido[3,2-d]pyrimidin-4-yl)morpholine]"
2,100 to 1000 nM,"Oc1cccc(-c2nccc(-c3nc(N4CCOCC4)c4ncccc4n3)n2)c1 [Compound 101, 3-(4-(4-morpholinopyrido[3,2-d]pyrimidin-2-yl)pyrimidin-2-yl)phenol]"
3,100 to 1000 nM,"COc1cnc(-c2cccc(C)c2)nc1-c1nc(N2CCOCC2)c2ncccc2n1 [Compound 102, 4-(2-(5-methoxy-2-m-tolylpyrimidin-4-yl)pyrido[3,2-d]pyrimidin-4-yl)morpholine]"
4,1000 to 10000 nM,"CC(C)(C)OC(=O)N1CCC(Cc2ccn(-c3nc(N4CCOCC4)c4ncccc4n3)n2)C1 (stereo not shown) [Compound 63, tert-butyl 3-[[1-(4-morpholinopyrido[3,2-d]pyrimidin-2-yl)pyrazol-3-yl]methyl]pyrrolidine-1-carboxylate]"
5,< 10 nM,"COC(=O)c1cnc2c(N3CCOCC3)nc(-n3cc(-c4cccc(OC)c4)cn3)nc2c1 [Compound 43, methyl 2-(4-(3-methoxyphenyl)-1H-pyrazol-1-yl)-4-morpholinopyrido[3,2-d]pyrimidine-7-carboxylate]"
6,10 to 100 nM,"c1ccc(-c2ccn(-c3nc(N4CCOCC4)c4ncc(C5CCNCC5)cc4n3)n2)cc1 [Compound 36, 4-(2-(3-phenyl-1H-pyrazol-1-yl)-7-(piperidin-4-yl)pyrido[3,2-d]pyrimidin-4-yl)morpholine]"
7,< 10 nM,"c1ccc(-c2nccc(-c3nc(N4CCOCC4)c4ncc(-c5ccncc5)cc4n3)n2)cc1 [Compound 104, 4-(2-(2-phenylpyrimidin-4-yl)-7-(pyridin-4-yl)pyrido[3,2-d]pyrimidin-4-yl)morpholine]"
8,1000 to 10000 nM,"c1cncc(-c2ccn(-c3nc(N4CCOCC4)c4ncc(-c5ccc6c(c5)OCCO6)cc4n3)n2)c1 [Compound 49, 4-(7-(2,3-dihydrobenzo[b][1,4]dioxin-6-yl)-2-(3-(pyridin-3-yl)-1H-pyrazol-1-yl)pyrido[3,2-d]pyrimidin-4-yl)morpholine]"
9,1000 to 10000 nM,"c1coc(-c2nccc(-c3nc(N4CCOCC4)c4ncccc4n3)n2)c1 [Compound 99, 4-(2-(2-(furan-2-yl)pyrimidin-4-yl)pyrido[3,2-d]pyrimidin-4-yl)morpholine]"
10,10 to 100 nM,"Cc1cccc(/C=N/Oc2nc(N3CCOCC3)c3ncccc3n2)c1 [Compound 116, (E)-3-methylbenzaldehyde O-(4-morpholinopyrido[3,2-d]pyrimidin-2-yl) oxime]"
11,1000 to 10000 nM,"COc1ccc(-c2ccccc2)nc1-c1nc(N2CCOCC2)c2ncccc2n1 [Compound 107, 4-(2-(3-methoxy-6-phenylpyridin-2-yl)pyrido[3,2-d]pyrimidin-4-yl)morpholine]"
12,< 10 nM,"COc1cccc(-c2cnn(-c3nc(N4CCOCC4)c4ncc(CO)cc4n3)c2)c1 [Compound 45, (2-(4-(3-methoxyphenyl)-1H-pyrazol-1-yl)-4-morpholinopyrido[3,2-d]pyrimidin-7-yl)methanol]"
13,10 to 100 nM,"COc1cccc(-c2cnn(-c3nc(N4CCOCC4)c4ncc(C(=O)O)cc4n3)c2)c1 [Compound 44, 2-(4-(3-methoxyphenyl)-1H-pyrazol-1-yl)-4-morpholinopyrido[3,2-d]pyrimidine-7-carboxylic acid]"
14,1000 to 10000 nM,"c1cc(-c2ccn(-c3nc(N4CCOCC4)c4ncc(C5CCOCC5)cc4n3)n2)ccn1 [Compound 51, 4-[2-[3-(4-pyridyl)pyrazol-1-yl]-7-tetrahydropyran-4-yl-pyrido[3,2-d]pyrimidin-4-yl]morpholine]"

# Tested on: PIKFYVE TDP-43 yeast strain
# Test: Propidium iodide viability assay in PIKFYVE TDP-43 yeast strain
# Type: cell-based
# Conditions: Saccharomyces cerevisiae; reduction in PI-positive cells, 24 hours, 15 μM to 0.11 μM; plotted in FIG. 7
# Excerpt: Generation of TDP-43 yeast model expressing human PIKfyve. Human PIKFYVE (“entry clone”) was cloned into pAG416GPDccdB (“destination vector”) according to standard Gateway cloning protocols (Invitrogen, Life Technologies). The resulting pAG416GPD-PIKFYVE plasmids were amplified in E. coli and plasmid identity confirmed by restriction digest and Sanger sequencing. Lithium acetate/polyethylene glycol-based transformation was used to introduce the above PIKFYVE plasmid into a BY4741 yeast strain auxotrophic for the ura3 gene and deleted for two transcription factors that regulate the xenobiotic efflux pumps, a major efflux pump, and FAB1, the yeast ortholog of PIKFYVE (MATa, snq2::KILeu2; pdr3::Klura3;pdr1::NATMX; fab1::G418^R, his3;leu2;ura3;met15;LYS2+) (FIG. 2).
# Transformed yeast were plated on solid agar plates with complete synthetic media lacking uracil (CSM-ura) and containing 2% glucose. Individual colonies harboring the control or PIKFYVE TDP-43 plasmids were recovered. A plasmid containing wild-type TDP-43 under the transcriptional control of the GAL1 promoter and containing the hygromycin-resistance gene as a selectable marker was transformed into the fab1::G418^R pAG416GPD-PIKFYVE yeast strain (FIG. 1). Transformed yeast were plated on CSM-ura containing 2% glucose and […] after overnight recovery in media lacking antibiotic. Multiple independent isolates were further evaluated for cytotoxicity and TDP-43 expression levels.
# Viability Assay. A control yeast strain with the wild-type yeast FAB1 gene and TDP-43 (“FAB1 TDP-43”, carries empty pAG416 plasmid), and the “PIKFYVE TDP-43” yeast strain, were assessed for toxicity using a propidium iodide viability assay. Both yeast strains were transferred from solid CSM-ura/2% glucose agar plates into 3 mL of liquid CSM-ura/2% glucose media for 6-8 hours at 30° C. with aeration. Yeast cultures were then diluted to an optical density at 600 nm wavelength (OD600) of 0.005 in 3 mL of CSM-ura/2% raffinose and grown overnight at 30° C. with aeration to an OD600 of 0.3-0.8. Log-phase overnight cultures were diluted to OD600 of 0.005 in CSM-ura containing either 2% raffinose or galactose and 150 μL dispensed into each well of a flat bottom 96-well plates. Compounds formulated in 100% dimethyl sulfoxide (DMSO) were serially diluted in DMSO and 1.5 μL diluted compound transferred to the 96-well plates using a multichannel pipet. Wells containing DMSO alone were also evaluated as controls for compound effects. Tested concentrations ranged from 15 μM to 0.11 μM. Cultures were immediately mixed to ensure compound distribution and covered plates incubated at 30° C. for 24 hours in a stationary, humified incubator.
# Upon the completion of incubation, cultures were assayed for viability using propidium iodide (PI) to stain for dead/dying cells. A working solution of PI was made where, for each plate, 1 μL of 10 mM PI was added to 10 mL of CSM-ura (raffinose or galactose). The final PI solution (50 μL/well) was dispensed into each well of a new round bottom 96-well plate. The overnight 96-well assay plate was then mixed with a multichannel pipet and 50 μL transferred to the PI-containing plate. This plate was then incubated for 30 minutes at 30° C. in the dark. A benchtop flow cytometer (Miltenyi MACSquant) was then used to assess red fluorescence (B2 channel), forward scatter, and side scatter (with following settings: gentle mix, high flow rate, fast measurement, 10,000 events). Intensity histograms were then gated for “PI-positive” or “PI-negative” using the raffinose and galactose cultures treated with DMSO as controls. The DMSO controls for raffinose or galactose-containing cultures were used to determine the window of increased cell death and this difference set to 100. All compounds were similarly gated and then compared to this maximal window to establish the percent reduction in PI-positive cells.
row,Structure (SMILES),IC50
1,Cc1cccc(/C=N/Nc2nc(N3CCOCC3)c3ncccc3n2)c1,8210 nM
2,c1ccc(N2CCc3c(OCc4cccnc4)nc(N4CCOCC4)nc32)cc1,2680 nM
3,Cc1cccc(/C=N/Nc2cc(N3CCOCC3)nc(OCCc3ccc(CN)cc3)n2)c1,1120 nM
4,c1ccc(-c2ccnc(-c3cc(N4CCOCC4)nc(OCc4ccncc4)n3)n2)cc1,1450 nM
5,Cc1cccc(/C=N/Nc2nc(N3CCOCC3)c3nc(-c4ccncc4)n(C)c3n2)c1,4720 nM
6,c1ccc(-c2cccc(-c3cc(N4CCOCC4)n4nc(-c5ccncc5)cc4n3)n2)cc1,230 nM
7,Oc1cc(-c2ccccc2)nn1-c1cc(N2CCOCC2)n2nc(-c3ccncc3)nc2n1,693 nM
8,Oc1cc(C2CCOCC2)nn1-c1cc(N2CCOCC2)n2nc(-c3ccncc3)cc2n1,9100 nM
9,Fc1cccc(-c2ccnn2-c2nc(N3CCOCC3)c3ncccc3n2)c1,5750 nM

# Biological target: T2, PIKfyve (Homo sapiens, UniProt Q9Y2I7)
# T2 construct: PIKFYVE-NanoLuc® Fusion Vector (Promega) containing a full-length PIKfyve; host or cells: HEK293
# T2 sequence (Q9Y2I7 whole entry, the tested form may be a part): as the sequence (Q9Y2I7 whole entry S696N/L932S/Q995L/T998S/S1033A/Q1183K) above, with N696S, S932L, L995Q, S998T, A1033S, K1183Q counted along it
# Test: NanoBRET TE Intracellular Kinase Assay, K-8 (Promega) cell-based assay
# Conditions: HEK293 cells transfected with PIKFYVE-NanoLuc, compounds 2 hours; read-out: hPIKfyve BRET IC50
# Experimental: NanoBRET™ TE Intracellular Kinase Assay, K-8 (Promega) Cell-Based Assay. Intracellular inhibition of PIKfyve was assayed using Promega's NanoBRET™ TE Intracellular Kinase Assay, K-8 according to manufacturer's instructions. A dilution series of test compounds was added for 2 hours to HEK293 cells transfected for a minimum of 20 hours with PIKFYVE-NanoLuc® Fusion Vector (Promega) containing a full-length PIKfyve according to manufacturer's specifications in a 96-well plate. Kinase activity was detected by addition of a NanoBRET™ tracer reagent, which was a proprietary PIKfyve inhibitor appended to a fluorescent probe (BRET, bioluminescence resonance energy transfer). Test compounds were tested at concentrations of 10, 3, 1, 0.3, 0.1, 0.03, 0.01, 0.003 μM. BRET signals were measured by a GloMax® Discover Multimode Microplate Reader (Promega) using 0.3 sec/well integration time, 450BP donor filter and 600LP acceptor filters. Active test compounds that bound PIKfyve and displaced the tracer reduced BRET signal. IC50 values were then calculated by fitting the data to the normalized BRET ratio.
row,IC50,Structure (SMILES)
1,> 10000 nM,"Oc1cc(-c2ccccc2)nn1-c1nc(N2CCOCC2)c2ncccc2n1 [Compound 71, 1-(4-morpholinopyrido[3,2-d]pyrimidin-2-yl)-3-phenyl-1H-pyrazol-5-ol]"
2,1000 to 10000 nM,"c1ccc(-c2ccn(-c3nc(N4CCOCC4)c4ncccc4n3)n2)nc1 [Compound 12, 4-(2-(3-(pyridin-2-yl)-1H-pyrazol-1-yl)pyrido[3,2-d]pyrimidin-4-yl)morpholine]"
